Values after ≈ are worked out from the molar mass of the structure shown. Like-named read-outs stand apart in the source and are kept apart here.
How the values were obtained:
C. albicans 1040 = experiment: In vitro growth inhibition, macromethod of scalar broth dilution (YNB); format: cell-based, Candida albicans
Description: (§1) A) The activity inhibiting the growth of mycetes has been evaluated by the macromethods of the scalar broth dilution in geometrical progression (M. R. McGinnis and M. G. Rinaldi, "Antimycotic drugs: mechanisms of action, drug resistance, susceptibility testing and assay of activity in biological fluids", in Antibiotic in Laboratory Medicine, Ed. V. Lorian, Baltimore 1991).
(§2) As growing medium Yeast Nitrogen Base broth (YNB) and Sabouraud Dextrose broth (SDB) were employed for yeasts and moulds respectively.
(§3) Fluconazole has been taken as reference compound.

C. neoformans = experiment: as above; format: cell-based, Cryptococcus neoformans
Description: as §1, §2, §3

T. mentagrophytes = experiment: In vitro growth inhibition, macromethod of scalar broth dilution (SDB); format: cell-based, Trichophyton mentagrophytes; conditions: for MIC: Trichophyton mentagrophytes, 168 h, read-out: MIC (minimum inhibiting concentration)
Description: as §1, §2, §3

A. fumigatus [1] = experiment: as above; format: cell-based, Aspergillus fumigatus; conditions: for MIC: Aspergillus fumigatus, 168 h, read-out: MIC (minimum inhibiting concentration)
Description: as §1, §2, §3

Candida albicans 1040 = experiment: In vivo oral antimycotic effectiveness, systemic candidiasis; parameters: species or system mice (Albino Charles River, CD1 strain); conditions: mice, oral at 0, 4, 24, 48 hours after i.v. infection; for PD50 (medium protective dose) at the 14th day: 20160 min; for ED50: Candida albicans, 1040, in Mus musculus, po, 336 h, read-out: PD50 (medium protective dose) at the 14th day
Experimental: (§4) Albino Charles River mice (CD1 strain) weighing from 23 to 25 g, normally feed with a standard diet and water ad libitum were employed.
(§5) Each animal has been intravenously (for systemic candidiasis, crytpococcosis, aspergillosis), intracranially (for intracranial cryptococcosis) or nasally (for pulmonary aspergillosis) treated with a suspension (0.2 ml containing 2.5×10^7 cells/ml) of the due microorganism in physiological. Right after the injection and after 4, 24 and 48 hours the animals has been orally administered (in 2% Arabic gum) geometrically progressive increasing doses of the compound under test. An infected group has been used as control.
(§6) The mortality monitoring of the mice has been prolonged up to 14 days. The medium protective dose (PD50) has been calculated by the probits analysis (L. Lison--"Statistica applicata alla biologia sperimentale. La programmazione dell'esperimento e l'analisi dei risultati"--Casa Editrice Ambrosiana, 1961) on the basis of the number of animals survived at each concentration.
(§7) Fluconazole and Itraconazole were taken as reference compounds.

A. fumigatus [2] = experiment: In vitro antimycotic activity, dilution in agar (mycetes); format: cell-based, Aspergillus fumigatus; conditions: casitone agar pH 7, 32° C., 1-10 days
Experimental: (§8) B) The activity inhibiting the growth of yeasts and filamentosous fungi has been evaluated by the method of the dilution in agar. The minimum inhibiting concentration at 50% (MIC50) was measured by incorporating into the growing medium decreasing concentrations of the tested compounds thus yielding scalar concentration on basis 2, from […].
(§9) As growing medium casitone agar buffered at pH=7 (casitone 9 g, glucose 20 g, sodium citrate 10 g, leaven extract 5 g, agar 18 g, potassium biphosphate 0.54 g, sodium biphosphate 3.34 g, distilled water 1,000 ml) was employed.
(§10) For evaluating the activity against the mycetes the growing mediums containing the scalar concentrations of the compounds to be tested were inoculated with 1 μl of a suspension of 5×10^5 of spores/ml (conides or endospores) obtained from duly sporulated coltures. The inoculated growing mediums were incubated at 32° C. and the measurements were effected after 1, 2, 3, 5, 7 and 10 days.
(§11) Fluconazole, Itraconazole and Amphotericin B have been taken as reference compounds.

A. flavusalis = experiment: as above; format: cell-based, Aspergillus flavus; conditions: casitone agar pH 7, 32° C., 1-10 days
Experimental: as §8, §9, §10, §11

A. niger = experiment: as above; format: cell-based, Aspergillus niger; conditions: casitone agar pH 7, 32° C., 1-10 days
Experimental: as §8, §9, §10, §11

A. terreus = experiment: as above; format: cell-based, Aspergillus terreus; conditions: casitone agar pH 7, 32° C., 1-10 days
Experimental: as §8, §9, §10, §11

A. alliaceus = experiment: as above; format: cell-based, Aspergillus alliaceus; conditions: casitone agar pH 7, 32° C., 1-10 days
Experimental: as §8, §9, §10, §11

F. verticilloides = experiment: as above; format: cell-based, Fusarium verticilloides; conditions: casitone agar pH 7, 32° C., 1-10 days
Experimental: as §8, §9, §10, §11

F. proliferatum = experiment: as above; format: cell-based, Fusarium proliferatum; conditions: casitone agar pH 7, 32° C., 1-10 days
Experimental: as §8, §9, §10, §11

Acremonium = experiment: as above; format: cell-based; conditions: casitone agar pH 7, 32° C., 1-10 days
Experimental: as §8, §9, §10, §11

Mucor = experiment: as above; format: cell-based; conditions: casitone agar pH 7, 32° C., 1-10 days
Experimental: as §8, §9, §10, §11

Pseudoallescheria = experiment: as above; format: cell-based; conditions: casitone agar pH 7, 32° C., 1-10 days
Experimental: as §8, §9, §10, §11

Trichoderma = experiment: as above; format: cell-based; conditions: casitone agar pH 7, 32° C., 1-10 days
Experimental: as §8, §9, §10, §11

A. corymbifera = experiment: as above; format: cell-based, Absidia corymbifera; conditions: casitone agar pH 7, 32° C., 1-10 days
Experimental: as §8, §9, §10, §11

R. pusillus = experiment: as above; format: cell-based, Rhyzomucor pusillus; conditions: casitone agar pH 7, 32° C., 1-10 days
Experimental: as §8, §9, §10, §11

[3] = tested on: Cryptococcus neoformans 3443; experiment: In vivo oral antimycotic effectiveness, systemic cryptococcosis; parameters: species or system mice (Albino Charles River, CD1 strain); conditions: 336 h, mice, oral at 0, 4, 24, 48 hours after i.v. infection, read-out: PD50 (medium protective dose) at the 14th day
Experimental: as §4, §5, §6, §7

[4] = tested on: Cryptococcus neoformans ISM; experiment: In vivo oral antimycotic effectiveness, intracranial cryptococcosis; parameters: species or system mice (Albino Charles River, CD1 strain); conditions: 336 h, mice, oral at 0, 4, 24, 48 hours after intracranial infection, read-out: PD50 (medium protective dose) at the 14th day
Experimental: as §4, §5, §6, §7

[5] = tested on: Aspergillus fumigatus MOL-4; experiment: In vivo oral antimycotic effectiveness, pulmonary aspergillosis; parameters: species or system mice (Albino Charles River, CD1 strain); conditions: MOL4, 336 h, mice, oral at 0, 4, 24, 48 hours after nasal infection, read-out: PD50 (medium protective dose) at the 14th day
Experimental: as §4, §5, §6, §7

[6] = tested on: Aspergillus fumigatus MOL-4; experiment: In vivo oral antimycotic effectiveness, systemic aspergillosis; parameters: species or system mice (Albino Charles River, CD1 strain); conditions: MOL4, 336 h, mice, oral at 0, 4, 24, 48 hours after i.v. infection, read-out: PD50 (medium protective dose) at the 14th day
Experimental: as §4, §5, §6, §7

[7] = C. albicans 1040, YNB, 35° C., 48 hours, 2A, 3A, 3B tested as nitrates
[8] = C. neoformans, YNB, 35° C., 48 hours, 2A, 3A, 3B tested as nitrates
[9] = T. mentagrophytes, SDB, 28° C., 7 days, 2A, 3A, 3B tested as nitrates
[10] = A. fumigatus, SDB, 28° C., 7 days, 2A, 3A, 3B tested as nitrates
[11] = Cryptococcus neoformans, 48 h, C. neoformans, YNB, 35° C., 48 hours, 2A, 3A, 3B tested as nitrates, read-out: IC50
[12] = Candida albicans, 1040, 48 h, C. albicans 1040, YNB, 35° C., 48 hours, 2A, 3A, 3B tested as nitrates, read-out: IC50

SMILES	IC50 (C. neoformans; [11]) [µg/mL]	MIC (T. mentagrophytes; [9]) [µg/mL]	MIC (A. fumigatus [1]; [10]) [µg/mL]	ED50 (Candida albicans 1040) [mg/kg]	ED50 [3] [mg/kg]	ED50 [4] [mg/kg]	ED50 [5] [mg/kg]	ED50 [6] [mg/kg]	other results
CC(C)(COC(F)(F)C(F)F)C(O)(Cn1cncn1)c1ccc(F)cc1F (single isomer, unassigned; (+)) [Compound 1B]									IC50 (C. albicans 1040; [7]): 1 µg/mL (≈ 2.52 µM); IC50 (C. neoformans; [8]): 1 µg/mL (≈ 2.52 µM); MIC (minimum inhibiting concentration) (T. mentagrophytes; [9]): 32 µg/mL (≈ 80.5 µM); MIC (minimum inhibiting concentration) (A. fumigatus [1]; [10]): > 128 µg/mL; PD50 (medium protective dose) at the 14th day (Candida albicans 1040): > 2 mg/kg/os
CC(C)(COC(F)(F)C(F)F)C(O)(Cn1cncn1)c1ccc(F)cc1F (single isomer, unassigned; (-)) [Compound 1A, (-) 2-(2,4-difluorophenyl)-4-(1,1,2-tetrafluoroethoxy)-3,3-dimethyl-1-(1H-1,2,4-triazol-1-yl)-2-butanol]									IC50 (C. albicans 1040; [7]): 0.0078 µg/mL (≈ 0.0196 µM); IC50 (C. neoformans; [8]): 0.0078 µg/mL (≈ 0.0196 µM); MIC (minimum inhibiting concentration) (T. mentagrophytes; [9]): 0.125 µg/mL (≈ 0.315 µM); MIC (minimum inhibiting concentration) (A. fumigatus [1]; [10]): 4 µg/mL (≈ 10.1 µM); PD50 (medium protective dose) at the 14th day (Candida albicans 1040): 0.64 mg/kg/os
C[C@@H]1[C@H](O)[C@@H](C)/C=C/C=C/C=C/C=C/C=C/C=C/C=C/[C@H](O[C@@H]2O[C@H](C)[C@@H](O)[C@H](N)[C@@H]2O)C[C@@H]2O[C@](O)(C[C@@H](O)C[C@@H](O)[C@H](O)CC[C@@H](O)C[C@@H](O)CC(=O)O[C@H]1C)C[C@H](O)[C@H]2C(=O)O [Amphotericin B]									MIC50 (A. fumigatus [2]): 0.25 µg/mL (≈ 0.271 µM); MIC50 (A. flavusalis): 0.25 µg/mL (≈ 0.271 µM); MIC50 (A. niger): 0.12 µg/mL (≈ 0.13 µM); MIC50 (A. terreus): 0.25 µg/mL (≈ 0.271 µM); MIC50 (A. alliaceus): 16 µg/mL (≈ 17.3 µM); MIC50 (F. verticilloides): 2 µg/mL (≈ 2.16 µM); MIC50 (F. proliferatum): 1 µg/mL (≈ 1.08 µM); MIC50 (Acremonium): 16 µg/mL (≈ 17.3 µM); MIC50 (Mucor): 0.03 µg/mL (≈ 0.0325 µM); MIC50 (Pseudoallescheria): 8 µg/mL (≈ 8.66 µM); MIC50 (Trichoderma): 1 µg/mL (≈ 1.08 µM); MIC50 (A. corymbifera): 0.06 µg/mL (≈ 0.0649 µM); MIC50 (R. pusillus): 0.06 µg/mL (≈ 0.0649 µM)
C[C@@H](COC(F)(F)C(F)F)[C@](O)(Cn1cncn1)c1ccc(F)cc1F [Compound 2A, (-) (2R,3S)-2-(2,4-difluorophenyl)-4-(1,1,2,2-tetrafluoroethoxy)-3-methyl-1-(1H-1,2,4-triazol-1-yl)-2-butanol]	0.0312 (≈ 0.0814 µM)	0.25 (≈ 0.652 µM)	8 (≈ 20.9 µM)	0.32	8.84	14.6	9.3	3.5	
C[C@@H](COC(F)(F)C(F)F)[C@](O)(Cn1cncn1)c1ccc(Cl)cc1Cl [Compound 3A, (-) (2R,3S)-2-(2,4-dichlorophenyl)-4-(1,1,2,2-tetrafluoroethoxy)-3-methyl-1-(1H-1,2,4-triazol-1-yl)-2-butanol]	0.0078 (≈ 0.0187 µM)	0.0625 (≈ 0.15 µM)	2 (≈ 4.81 µM)	0.38	5.48	12.5	6.9	4.5	IC50 (C. albicans 1040; [12]): 0.0078 µg/mL (≈ 0.0187 µM)
C[C@H](COC(F)(F)C(F)F)[C@@](O)(Cn1cncn1)c1ccc(Cl)cc1Cl [Compound 3B, (+) (2S,3R)-2-(2,4-dichlorophenyl)-4-(1,1,2,2-tetrafluoroethoxy)-3-methyl-1-(1H-1,2,4-triazol-1-yl)-2-butanol]	1 (≈ 2.4 µM)	16 (≈ 38.4 µM)	> 128	4.57					IC50 (C. albicans 1040; [12]): 0.25 µg/mL (≈ 0.601 µM)
OC(Cn1cncn1)(Cn1cncn1)c1ccc(F)cc1F [Fluconazole, reference compound]				0.61	63.2	22.3	> 100		IC50 (C. albicans 1040; Candida albicans, 1040, 48 h): 0.5 µg/mL (≈ 1.63 µM); IC50 (C. neoformans; Cryptococcus neoformans, 48 h): 2 µg/mL (≈ 6.53 µM); MIC (T. mentagrophytes): 16 µg/mL (≈ 52.2 µM); MIC (A. fumigatus [1]): > 128 µg/mL
CCC(C)n1ncn(-c2ccc(N3CCN(c4ccc(OCC5COC(Cn6cncn6)(c6ccc(Cl)cc6Cl)O5)cc4)CC3)cc2)c1=O (stereo not shown) [Itraconazole, reference compound]				1.74	> 50	> 25	> 20	10.2	

Source: US5869512A, “Azole compounds with antimycotic activity for human and veterinary use” (Zambon Group S.p.A, priority 1996, dated 1999)
